# Test results reported in patent US9243039B2, “Bipartite inhibitors of bacterial RNA polymerase: Sal-target-inhibitor/nucleoside-analog-inhibitor conjugates” (priority 2012, dated 2016).
# pIC50: −log10 of the molar value. *1 amine or outer side, *2 acyl side, *3 side chain or, on linkers, in order; H or OH if unused. Where a SMILES comes first, the peptide text is derived from it. Bridges are numbered along the chain shown (N, C = ends). [ ]: non-standard residue; d: D form. The star is where a group is joined. X6 = CCCCOC(/C=C/C(=O)[*:3])(CO)[C@@H](C)Oc1ccc([C@H](N[*:1])C(=O)[*:2])cc1; X3 = C[C@@H](Oc1ccc([C@H](N[*:1])C(=O)[*:2])cc1)[C@](O)(/C=C/C(=O)[*:3])CO; Pentanoyl(2R-Me,3R-OH,4-Me) = CC(C)[C@@H](O)[C@@H](C)C(=O)*; d(aIle) = CC[C@H](C)[C@@H](N)C(=O)O; d(aThr) = C[C@@H](O)[C@@H](N)C(=O)O; NMeF = CN[C@@H](Cc1ccccc1)C(=O)O
# Tests used:
# Escherichia coli RNAP = Escherichia coli RNAP (Escherichia coli, UniProt P0A8T7+P0A8V2); assay: Fluorescence-detected RNAP assay, Escherichia coli RNAP; format: biochemical; settings: fluorescent-detected RNAP assays
# Sequence of Escherichia coli RNAP (P0A800 whole entry, the tested form may be a part): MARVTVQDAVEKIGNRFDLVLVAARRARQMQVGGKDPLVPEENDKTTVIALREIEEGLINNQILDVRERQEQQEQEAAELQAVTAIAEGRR
# Sequence of Escherichia coli RNAP (P00579 whole entry, further chain, the tested form may be a part): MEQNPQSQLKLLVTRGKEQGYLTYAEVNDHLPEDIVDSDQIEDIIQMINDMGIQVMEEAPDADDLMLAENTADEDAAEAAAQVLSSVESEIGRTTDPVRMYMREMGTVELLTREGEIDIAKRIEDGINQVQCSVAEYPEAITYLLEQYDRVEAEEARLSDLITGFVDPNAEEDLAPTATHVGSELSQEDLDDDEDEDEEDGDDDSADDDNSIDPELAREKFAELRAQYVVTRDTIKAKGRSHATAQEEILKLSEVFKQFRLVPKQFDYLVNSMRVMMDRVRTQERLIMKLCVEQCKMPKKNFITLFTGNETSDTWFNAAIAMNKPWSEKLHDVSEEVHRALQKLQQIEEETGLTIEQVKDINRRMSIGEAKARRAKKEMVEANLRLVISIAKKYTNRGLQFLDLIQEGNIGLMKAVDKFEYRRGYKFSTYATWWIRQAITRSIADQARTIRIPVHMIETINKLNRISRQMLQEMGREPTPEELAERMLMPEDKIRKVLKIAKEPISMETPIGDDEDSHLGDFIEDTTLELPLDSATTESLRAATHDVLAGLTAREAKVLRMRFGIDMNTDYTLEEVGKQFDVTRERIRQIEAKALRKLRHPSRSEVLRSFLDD
# Sequence of Escherichia coli RNAP (P0A8V2 whole entry, the tested form may be a part): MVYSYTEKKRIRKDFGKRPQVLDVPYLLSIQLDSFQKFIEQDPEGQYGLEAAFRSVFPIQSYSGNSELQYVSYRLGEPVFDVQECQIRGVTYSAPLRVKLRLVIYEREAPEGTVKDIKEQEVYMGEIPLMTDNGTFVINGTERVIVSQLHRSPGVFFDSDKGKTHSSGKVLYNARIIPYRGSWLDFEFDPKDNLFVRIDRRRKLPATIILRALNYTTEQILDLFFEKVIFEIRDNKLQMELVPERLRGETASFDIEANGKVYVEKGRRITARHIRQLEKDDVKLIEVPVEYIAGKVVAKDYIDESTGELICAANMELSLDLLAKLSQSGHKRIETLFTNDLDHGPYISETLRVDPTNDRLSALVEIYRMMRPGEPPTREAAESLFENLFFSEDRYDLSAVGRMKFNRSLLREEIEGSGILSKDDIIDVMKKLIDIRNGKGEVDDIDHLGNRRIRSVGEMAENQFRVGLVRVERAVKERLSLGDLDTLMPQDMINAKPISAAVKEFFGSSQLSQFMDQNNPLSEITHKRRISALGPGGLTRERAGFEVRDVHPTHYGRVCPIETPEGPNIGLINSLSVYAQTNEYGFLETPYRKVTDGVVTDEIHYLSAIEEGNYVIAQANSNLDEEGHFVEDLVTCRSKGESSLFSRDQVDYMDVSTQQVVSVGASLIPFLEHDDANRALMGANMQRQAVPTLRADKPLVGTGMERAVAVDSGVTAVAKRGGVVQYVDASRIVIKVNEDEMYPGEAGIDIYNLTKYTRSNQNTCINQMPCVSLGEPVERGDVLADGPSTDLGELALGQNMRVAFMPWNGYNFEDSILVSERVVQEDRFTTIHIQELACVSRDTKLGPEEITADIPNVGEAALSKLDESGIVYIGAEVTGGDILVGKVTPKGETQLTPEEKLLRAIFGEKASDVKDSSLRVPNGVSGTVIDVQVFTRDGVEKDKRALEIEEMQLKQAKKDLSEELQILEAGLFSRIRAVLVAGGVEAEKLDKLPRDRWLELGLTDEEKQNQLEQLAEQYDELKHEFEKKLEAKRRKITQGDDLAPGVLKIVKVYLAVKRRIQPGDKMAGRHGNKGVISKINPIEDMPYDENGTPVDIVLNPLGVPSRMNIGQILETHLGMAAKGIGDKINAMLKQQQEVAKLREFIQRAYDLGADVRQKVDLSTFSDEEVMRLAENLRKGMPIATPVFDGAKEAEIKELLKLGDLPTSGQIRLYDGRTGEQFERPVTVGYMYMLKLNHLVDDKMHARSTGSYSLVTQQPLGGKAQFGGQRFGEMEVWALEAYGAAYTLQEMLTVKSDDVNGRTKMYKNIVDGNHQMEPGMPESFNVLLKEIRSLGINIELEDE
# Sequence of Escherichia coli RNAP (P0A8T7 whole entry, the tested form may be a part): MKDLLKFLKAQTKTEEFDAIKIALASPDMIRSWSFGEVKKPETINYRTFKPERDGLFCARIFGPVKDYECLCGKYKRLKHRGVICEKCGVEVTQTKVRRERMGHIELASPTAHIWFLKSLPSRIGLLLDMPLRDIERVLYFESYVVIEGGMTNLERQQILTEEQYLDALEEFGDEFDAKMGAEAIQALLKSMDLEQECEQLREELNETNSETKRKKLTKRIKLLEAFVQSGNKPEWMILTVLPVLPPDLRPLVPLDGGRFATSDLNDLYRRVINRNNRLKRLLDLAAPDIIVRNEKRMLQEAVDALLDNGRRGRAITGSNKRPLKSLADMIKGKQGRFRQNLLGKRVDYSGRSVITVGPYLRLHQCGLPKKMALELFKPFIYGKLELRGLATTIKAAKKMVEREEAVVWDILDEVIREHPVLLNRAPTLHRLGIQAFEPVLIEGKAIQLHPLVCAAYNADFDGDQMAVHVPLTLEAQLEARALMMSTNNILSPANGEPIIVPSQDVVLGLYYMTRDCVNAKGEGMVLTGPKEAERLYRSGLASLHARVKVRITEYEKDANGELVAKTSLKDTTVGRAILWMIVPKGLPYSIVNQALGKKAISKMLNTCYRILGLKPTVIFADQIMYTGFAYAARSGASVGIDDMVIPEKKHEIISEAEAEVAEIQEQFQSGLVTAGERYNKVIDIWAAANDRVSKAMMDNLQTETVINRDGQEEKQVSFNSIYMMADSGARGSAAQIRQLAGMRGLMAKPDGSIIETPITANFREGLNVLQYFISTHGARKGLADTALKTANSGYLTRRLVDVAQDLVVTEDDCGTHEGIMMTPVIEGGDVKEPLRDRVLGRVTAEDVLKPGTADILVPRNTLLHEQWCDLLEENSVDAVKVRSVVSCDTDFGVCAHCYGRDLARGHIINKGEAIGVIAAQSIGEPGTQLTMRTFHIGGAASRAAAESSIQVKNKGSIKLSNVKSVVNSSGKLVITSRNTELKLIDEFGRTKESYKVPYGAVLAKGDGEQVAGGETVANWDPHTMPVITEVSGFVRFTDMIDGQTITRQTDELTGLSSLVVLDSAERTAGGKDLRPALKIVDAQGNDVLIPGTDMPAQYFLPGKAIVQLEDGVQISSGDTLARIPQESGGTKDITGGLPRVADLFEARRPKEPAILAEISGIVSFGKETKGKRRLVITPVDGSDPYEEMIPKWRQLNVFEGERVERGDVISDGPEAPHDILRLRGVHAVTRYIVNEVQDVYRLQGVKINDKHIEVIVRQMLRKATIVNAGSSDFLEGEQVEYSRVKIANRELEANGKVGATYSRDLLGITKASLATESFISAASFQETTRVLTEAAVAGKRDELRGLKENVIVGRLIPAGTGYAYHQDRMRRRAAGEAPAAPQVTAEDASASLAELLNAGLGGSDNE
# Sequence of Escherichia coli RNAP (P0A7Z4 whole entry, further chain, the tested form may be a part): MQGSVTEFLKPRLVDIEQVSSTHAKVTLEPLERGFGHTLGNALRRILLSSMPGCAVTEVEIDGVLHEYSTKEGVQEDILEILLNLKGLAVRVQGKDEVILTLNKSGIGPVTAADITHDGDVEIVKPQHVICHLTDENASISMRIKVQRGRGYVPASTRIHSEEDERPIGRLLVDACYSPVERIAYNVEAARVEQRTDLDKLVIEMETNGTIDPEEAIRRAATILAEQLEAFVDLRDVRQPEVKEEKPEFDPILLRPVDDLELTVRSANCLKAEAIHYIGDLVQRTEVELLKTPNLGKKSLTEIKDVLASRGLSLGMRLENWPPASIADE
# Protocol: Fluorescence-detected RNAP assays with Escherichia coli RNAP were performed by a modification of the procedure of Kuhlman et al., 2004 [Kuhlman et al., Anal. Biochem. 324:183-190, 2004]. Reaction mixtures contained (20 μl): […] test compound, 75 nM Escherichia coli RNAP […] holoenzyme, 20 nM 384 by DNA fragment containing the bacteriophage T4 N25 promoter, 100 μM ATP, 100 μM GTP, 100 μM UTP, 100 μM CTP, 50 mM Tris-HCl, pH 8.0, 100 mM KCl, 10 mM MgCl2, 1 mM DTT, 10 μg/ml bovine serum albumin, and 5.5% glycerol. Reaction components other than DNA and NTPs were pre-incubated for 10 min at 37° C. Reactions were carried out by addition of DNA and incubation for 5 min at 37° C., followed by addition of NTPs and incubation for 60 min at 37° C. DNA was removed by addition of 1 μl 5 mM CaCl2 and 2 U DNaseI (Ambion, Inc.), followed by incubation for 90 min at 37° C. RNA was quantified by addition of 100 μl RiboGreen RNA Quantitation Reagent (Invitrogen, Inc.; 1:500 dilution in Tris-HCl, pH 8.0, 1 mM EDTA), followed by incubation for 10 min at 25° C., followed by measurement of fluorescence intensity [excitation wavelength=485 nm and emission wavelength=535 nm; QuantaMaster QM1 spectrofluorometer (PTI, Inc.)].
# (§1) Half-maximal inhibitory concentrations (IC50s) were calculated by non-linear regression in SigmaPlot (SPSS, Inc.).
# [1] = tested on: Enterobacter cloacae ATCC 13047; assay: Antibacterial activity, broth microdilution, Enterobacter cloacae; format: cell-based
# Excerpt: (§2) Antibacterial activity was quantified using broth microdilution [Clinical and Laboratory Standards Institute (CLSUNCCLS), Methods for Dilution Antimicrobial Susceptibility Tests for Bacteria That Grow Aerobically; Approved Standard, Eighth Edition. CLIS Document M07-A8 (CLIS, Wayne Pa.), 2009]. Assays with Enterobacter cloacae ATCC 13047, Pseudomonas aeruginosa ATCC10145, and Escherichia coli D21f2to1C, employed a starting cell density of 2-5×10^5 cfu/ml, Mueller Hinton II cation adjusted broth (BD Biosciences, Inc.), and an air atmosphere. Assays with Haemophilus influenzae ATCC49247 and Neisseria gonorrhoeae ATCC 19424 employed a starting cell density of 2-5×10^5 cfu/ml, Haemophilus Test Medium broth (Barry et al., 1993) and a 5% CO2/95% air atmosphere. MIC50 was defined as the minimal concentration resulting in ≧50% inhibition of bacterial growth.
# [2] = tested on: Escherichia coli D21f2toIC; assay: Antibacterial activity, broth microdilution, Escherichia coli D21f2tolC; format: cell-based
# Excerpt: as §2
# Sal-resistant mutants = assay: Cross-resistance of Sal-resistant mutants to other RNAP inhibitors; format: cell-based; settings: disclosed herein
# Neisseria gonorrhoeae = assay: Antibacterial activity, broth microdilution, Neisseria gonorrhoeae; format: cell-based; settings: in words, Gram-negative bacterial pathogen
# Excerpt: as §2
# human RNAP I/II/III = assay: Radiochemical assay with human RNAP I, II and III (HeLaScribe nuclear extract); format: biochemical
# Protocol: Radiochemical assays with human RNAP I, II, and III were performed essentially as described [Sawadogo and Roeder, Cell 43:165-75, 1985]. Reaction mixtures contained (20 μl): 0-100 μM test compound, 8 U HeLaScribe Nuclear Extract (Promega, Inc.), 1 μg human placental DNA (Sigma-Aldrich), 400 μM ATP, 400 μM [α^32P]UTP (0.11 Bq/fmol), 400 μM CTP, 400 μM GTP, 50 mM Tris-HCl, pH 8.0, 7 mM HEPES-NaOH, 70 mM (NH4)2SO4, 50 mM KCl, 12 mM MgCl2, 5 mM DTT, 0.1 mM EDTA, 0.08 mM phenylmethylsulfonyl fluoride, and 16% glycerol. Reaction components other than DNA and NTPs were pre-incubated 10 min at 30° C., DNA was added and reaction mixtures were incubated 15 min at 30° C., NTPs were added and reaction mixtures were incubated 60 min at 30° C. Reaction mixtures were spotted on DE81 filter discs (Whatman, Inc.; pre-wetted with water) and incubated 1 min at room temperature. Filters were washed with 3×3 ml Na2HPO4, 2×3 ml water, and 3 ml ethanol, using a filter manifold (Hoefer, Inc.). Filters were placed in scintillation vials containing 10 ml Scintiverse BD Cocktail (Thermo Fisher, Inc.), and radioactivity was quantified by scintillation counting (LS6500; Beckman-Coulter, Inc.).
# as §1
# [3] = tested on: Gram-positive and Gram-negative bacterial RNAP; assay: Inhibition of bacterial RNAP in vitro (radiochemical RNAP assays); format: biochemical; settings: in words, disclosed herein
# Protocol: Radiochemical RNAP assays with Escherichia coli RNAP and Staphylococcus aureus RNAP were performed as follows: Reaction mixtures contained (10 μl): 0-100 μM test compound, bacterial RNAP holoenzyme [75 nM Escherichia coli RNAP holoenzyme (prepared as in Mukhopadhyay et al., Meths. Enzymol. 371:144-159, 2003) or 75 nM Staphylococcus aureus RNAP core enzyme and 300 nM Staphylococcus aureus σ^A (prepared as in Srivastava et al., Curr. Opin. Microbiol. 14:532-543, 2011)], 20 nM DNA fragment N25-lacUV5-14 [positions −100 to −1 of the bacteriophage T5 N25 promoter followed by positions +1 to +29 of the lacUV5(+10A; +15C) promoter; prepared by PCR amplification of a synthetic nontemplate-strand oligodeoxyribonucleotide], 0.5 mM ApA, 100 μM [α^32P]UTP (0.2 Bq/fmol), 100 μM ATP, and 100 μM GTP in TB (50 mM Tris-HCl, pH 7.9, 100 mM KCl, 10 mM MgCl2, 1 mM DTT, 100 μg/ml bovine serum albumin, and 5% glycerol). […] Products were applied to 7 M urea 15% polyacrylamide (19:1 acrylamide:bisacrylamide) slab gels (Bio-Rad), electrophoresed in TBE (90 mM Tris-borate, pH 8.0, and 2 mM EDTA), and analyzed by storage-phosphor scanning (Typhoon; GE Healthcare, Inc.).
# as §1
# Pseudomonas aeruginosa = assay: Antibacterial activity, broth microdilution, Pseudomonas aeruginosa; format: cell-based; settings: in words, Gram-negative bacterial pathogen
# Excerpt: as §2
# [4] = tested on: Gram-positive bacterial pathogens; settings: in words, reported previously (Trischman 1994; Moore 1999); cited from earlier work
# Haemophilus influenzae = assay: Antibacterial activity, broth microdilution, Haemophilus influenzae; format: cell-based; settings: in words, Gram-negative bacterial pathogen
# Excerpt: as §2
# Vero E6 ATCC CRL1586 = assay: Cytotoxicity to mammalian cells in culture (CellTiter96); format: cell-based
# Excerpt: MICs for mammalian cells (Vero E6) in culture were quantified using CellTiter96 assay (Promega. Inc.; procedures as specified by the manufacturer). Screening data for SalA and SalB (compounds 1 and 2) and representative compounds of this invention (compounds 3-9) are presented in Tables 1-2: […]
# [5] = minimal concentration resulting in ≧50% inhibition of bacterial growth
molecule,measurement,setting,value
"CCCCOC1(CO)/C=C/C(=O)NCC(=O)OC[C@@H]2NC(=O)[C@@H]([C@@H](C)O)NC(=O)[C@H](Cc3ccccc3)N(C)C(=O)[C@@H](NC(=O)[C@@H]([C@@H](C)CC)NC(=O)[C@@H](NC(=O)[C@H](C)[C@H](O)C(C)C)[C@@H](C)OC2=O)c2ccc(cc2)O[C@@H]1C (stereo partly drawn) [Sal-OBu B (5B)] ({Pentanoyl(2R-Me,3R-OH,4-Me)}-T[d(aIle)][X6][NMeF][d(aThr)]S; ester 1-C; linker 3-6 via G)",pIC50,Escherichia coli RNAP,< 4.60
"CC[C@H](C)[C@H]1NC(=O)[C@@H](NC(=O)[C@H](C)[C@H](O)C(C)C)[C@@H](C)OC(=O)[C@@H]2COC(=O)CNC(=O)/C=C/[C@](O)(CO)[C@@H](C)Oc3ccc(cc3)[C@H](NC1=O)C(=O)N(C)[C@@H](Cc1ccccc1)C(=O)N[C@H]([C@@H](C)O)C(=O)N2 [Sal-OH (4)] ({Pentanoyl(2R-Me,3R-OH,4-Me)}-T[d(aIle)][X3][NMeF][d(aThr)]S; ester 1-C; linker 3-6 via G)",MIC50,"[1]; Enterobacter cloacae, ATCC13047, minimal concentration resulting in ≧50% inhibition of bacterial growth",25 µg/mL
same,MIC50,"[2]; Escherichia coli, D21F2TOIC, read-out: MIC50 Escherichia coli D21f2toIC",0.78 µg/mL
same,pIC50,Escherichia coli RNAP,5.70
CNC(=O)[C@@H](C)[C@H]1C(=O)/C(=C(O)/C=C/C(C)=C/[C@@H](C)[C@H]2O[C@@]3(C)O[C@H](C=C[C@@]34CO4)[C@@H]2C)C(=O)N1[C@@H]1CC[C@H](O)[C@H](C)O1 [streptolydigin],cross-resistance of Sal-resistant mutants to the compound,Sal-resistant mutants,do not exhibit cross-resistance
lipiarmycin,cross-resistance of Sal-resistant mutants to the compound,Sal-resistant mutants,do not exhibit cross-resistance
myxopyronin,cross-resistance of Sal-resistant mutants to the compound,Sal-resistant mutants,do not exhibit cross-resistance
salinamide B [SalB (2)],antibacterial activity against Neisseria gonorrhoeae,Neisseria gonorrhoeae,exhibit antibacterial activity
same,pIC50,human RNAP I/II/III,< 4.00
same,"inhibition of human RNAP I, II, and III",human RNAP I/II/III; in words,do not detectably inhibit
same,antibacterial activity against Enterobacter cloacae,"[1]; in words, Gram-negative bacterial pathogen",exhibit antibacterial activity
same,MIC50 Enterobacter cloacae ATCC 13047,[1]; [5],6.25 µg/mL
same,MIC50 Escherichia coli D21f2toIC,[2]; [5],0.098 µg/mL
same,inhibition of Gram-positive and Gram-negative bacterial RNAP in vitro,[3],inhibits
same,antibacterial activity against Pseudomonas aeruginosa,Pseudomonas aeruginosa,exhibit antibacterial activity
same,pIC50,Escherichia coli RNAP,6.00
same,antibacterial activity against Gram-positive bacterial pathogens,[4],exhibit antibacterial activity
same,antibacterial activity against Haemophilus influenzae,Haemophilus influenzae,exhibit antibacterial activity
same,inhibition of growth of mammalian cells in culture,Vero E6 ATCC CRL1586; in words,do not detectably inhibit growth
same,MIC50 Vero E6 ATCC CRL1586,Vero E6 ATCC CRL1586; mammalian cells in culture,>100 µg/mL
